Reference: ChEMBL document CHEMBL5154942, “Discovery of Clinical Candidate NTQ1062 as a Potent and Bioavailable Akt Inhibitor for the Treatment of Human Tumors” (J Med Chem, 2022)

Assays:
[1] = AUC (0 to infinity) in overnight fasted ICR mouse at 10 mg/kg, po measured upto 24 hrs by UPLC-MS/MS analysis; assay type: ADME, organism-based; design: dose 10 mg/kg, time < 24 hrs, route po; details: in vivo
LNCaP [2] = test: Antiproliferative activity against human LNcap assessed as reduction in cell viability incubated for 72 hrs by Cell Titer Glo luminescent assay
[3] = AUC (0 to infinity) in ICR mouse at 2 mg/kg, iv measured upto 24 hrs by UPLC-MS/MS analysis; assay type: ADME, organism-based; design: dose 2 mg/kg, time < 24 hrs, route iv; details: in vivo
Cytochrome P450 3A4 = Cytochrome P450 3A4 (Homo sapiens, UniProt P08684); test: Inhibition of CYP3A4 in human liver microsomes at 0.01 to 30 uM […] in presence of NADPH by UPLC-MS/MS analysis; assay type: ADME, Microsome
Cytochrome P450 2C19 = Cytochrome P450 2C19 (Homo sapiens, UniProt P33261); test: Inhibition of CYP2C19 in human liver microsomes at 0.01 to 30 uM using mephenytoin as substrate in presence of NADPH by UPLC-MS/MS analysis; assay type: ADME, Microsome
[4] = biological target: RAC-alpha serine/threonine-protein kinase (Homo sapiens, UniProt P31749); test: Inhibition of recombinant AKT1 (104 to 480 end residues) (unknown origin) catalytic domain expressed in Sf21 cells using peptide substrate incubated for 1 hr in presence of ATP by caliper off-chip mobility shift assay
[5] = Oral bioavailability in overnight fasted ICR mouse at 10 mg/kg measured upto 24 hrs by UPLC-MS/MS analysis; assay type: ADME, organism-based; details: in vivo
[6] = Clearance in ICR mouse at 2 mg/kg, iv measured upto 24 hrs by UPLC-MS/MS analysis; assay type: ADME, organism-based; details: in vivo
[7] = MRT(0 to t) in overnight fasted ICR mouse at 10 mg/kg, po measured upto 24 hrs by UPLC-MS/MS analysis; assay type: ADME, organism-based; details: in vivo
[8] = Plasma protein binding in mouse at 1 to 100 uM incubated for 16 hrs by UPLC-MS/MS analysis; assay type: ADME, cell-free; details: dose 1-100 µM, read-out: PPB (converted)
Cytochrome P450 2C9 = Cytochrome P450 2C9 (Homo sapiens, UniProt P11712); test: Inhibition of CYP2C9 in human liver microsomes at 0.01 to 30 uM using diclofenac as substrate in presence of NADPH by UPLC-MS/MS analysis; assay type: ADME, Microsome
[9] = Plasma protein binding in human assessed as unbound fraction at 1 to 100 uM incubated for 16 hrs by UPLC-MS/MS analysis; assay type: ADME, cell-free; details: dose 1-100 µM
[10] = Cmax in overnight fasted ICR mouse at 10 mg/kg, po measured upto 24 hrs by UPLC-MS/MS analysis; assay type: ADME, organism-based; design: dose 10 mg/kg, time < 24 hrs, route po; details: in vivo
[11] = Half life in ICR mouse at 2 mg/kg, iv measured upto 24 hrs by UPLC-MS/MS analysis; assay type: ADME, organism-based; details: in vivo
[12] = Plasma protein binding in human at 1 to 100 uM incubated for 16 hrs by UPLC-MS/MS analysis; assay type: ADME, cell-free; details: dose 1-100 µM, read-out: PPB (converted)
LNCaP [13] = test: In vivo antitumor activity against human LNCap cells xenografted in NCG mouse assessed as tumor growth inhibition at 50 mg/kg administered once daily for 18 to 21 days relative to control; assay type: functional; details: time 18-21 day, read-out: TGI
[14] = Tmax in overnight fasted ICR mouse at 10 mg/kg, po measured upto 24 hrs by UPLC-MS/MS analysis; assay type: ADME, organism-based; details: in vivo
Cytochrome P450 2D6 = Cytochrome P450 2D6 (Homo sapiens, UniProt P10635); test: Inhibition of CYP2D6 in human liver microsomes at 0.01 to 30 uM using dextromethorphan as substrate in presence of NADPH by UPLC-MS/MS analysis; assay type: ADME, Microsome
Cytochrome P450 1A2 = biological target: T1, Cytochrome P450 1A2 (Homo sapiens, UniProt P05177); test: Inhibition of CYP1A2 in human liver microsomes at 0.01 to 30 uM […] in presence of NADPH by UPLC-MS/MS analysis; assay type: ADME, Microsome
T1 sequence (P05177 whole entry): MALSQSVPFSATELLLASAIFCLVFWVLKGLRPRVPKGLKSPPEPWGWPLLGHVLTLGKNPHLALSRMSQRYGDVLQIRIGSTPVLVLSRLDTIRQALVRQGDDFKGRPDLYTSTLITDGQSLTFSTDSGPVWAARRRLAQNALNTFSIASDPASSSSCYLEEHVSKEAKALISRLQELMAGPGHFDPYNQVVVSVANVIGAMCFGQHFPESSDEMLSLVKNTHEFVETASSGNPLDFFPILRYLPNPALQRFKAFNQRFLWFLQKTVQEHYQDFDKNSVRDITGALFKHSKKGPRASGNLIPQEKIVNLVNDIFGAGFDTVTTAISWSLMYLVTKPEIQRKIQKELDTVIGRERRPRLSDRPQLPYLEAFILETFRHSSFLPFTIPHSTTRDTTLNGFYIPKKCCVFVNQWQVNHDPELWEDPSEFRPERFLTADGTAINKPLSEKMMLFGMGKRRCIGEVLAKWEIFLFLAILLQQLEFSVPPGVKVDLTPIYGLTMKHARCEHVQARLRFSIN

ZR-75-1 = test: cells; details: Homo sapiens, ZR-75-1, 72 h
Description: Antiproliferative activity against human ZR-75-1 habouring PTEN deletion mutant assessed as reduction in cell viability incubated for 72 hrs by Cell Titer Glo luminescent assay

CAL-51 = test: cells; details: Homo sapiens, CAL-51, 72 h
Description: Antiproliferative activity against human CAL-51 habouring PTEN deletion and PIK3CA mutation/amplication assessed as reduction in cell viability incubated for 72 hrs by Cell Titer Glo luminescent assay

T47D = test: cells; details: Homo sapiens, 72 h
Description: Antiproliferative activity against human T47D habouring PIK3CA mutation/amplication assessed as reduction in cell viability incubated for 72 hrs by Cell Titer Glo luminescent assay

C-33-A = test: cells; details: Homo sapiens, 72 h
Description: Antiproliferative activity against human C-33-A habouring PTEN deletion mutant assessed as reduction in cell viability incubated for 72 hrs by Cell Titer Glo luminescent assay

TOV21G = test: cells; details: Homo sapiens, 72 h
Description: Antiproliferative activity against human TOV-21G habouring PTEN deletion and PIK3CA mutation/amplication assessed as reduction in cell viability incubated for 72 hrs by Cell Titer Glo luminescent assay

RL95-2 = test: cells; details: Homo sapiens, RL95-2, 72 h
Description: Antiproliferative activity against human RL95-2 habouring PTEN deletion mutant assessed as reduction in cell viability incubated for 72 hrs by Cell Titer Glo luminescent assay

PC-3 = test: cells; details: Homo sapiens, PC-3, 72 h
Description: Antiproliferative activity against human PC-3 habouring PTEN deletion and PIK3CA mutation/amplication assessed as reduction in cell viability incubated for 72 hrs by Cell Titer Glo luminescent assay

cells = details: Homo sapiens, COLO 704, 72 h

RAC-alpha serine/threonine-protein kinase, sequence (P31749 whole entry, the tested form may be a part): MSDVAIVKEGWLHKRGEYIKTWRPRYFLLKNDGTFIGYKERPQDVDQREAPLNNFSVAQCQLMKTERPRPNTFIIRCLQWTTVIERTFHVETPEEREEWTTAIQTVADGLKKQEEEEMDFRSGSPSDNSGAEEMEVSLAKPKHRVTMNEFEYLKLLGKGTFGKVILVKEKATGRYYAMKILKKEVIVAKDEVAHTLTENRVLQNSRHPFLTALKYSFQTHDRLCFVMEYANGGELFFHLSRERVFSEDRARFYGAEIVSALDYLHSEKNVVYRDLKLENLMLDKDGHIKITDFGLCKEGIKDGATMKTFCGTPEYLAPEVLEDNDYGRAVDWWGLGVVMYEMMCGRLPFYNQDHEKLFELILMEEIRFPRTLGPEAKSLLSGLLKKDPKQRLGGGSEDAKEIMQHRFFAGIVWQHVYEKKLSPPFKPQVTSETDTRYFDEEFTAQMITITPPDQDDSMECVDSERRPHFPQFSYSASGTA
Cytochrome P450 2C19, sequence (P33261 whole entry, the tested form may be a part): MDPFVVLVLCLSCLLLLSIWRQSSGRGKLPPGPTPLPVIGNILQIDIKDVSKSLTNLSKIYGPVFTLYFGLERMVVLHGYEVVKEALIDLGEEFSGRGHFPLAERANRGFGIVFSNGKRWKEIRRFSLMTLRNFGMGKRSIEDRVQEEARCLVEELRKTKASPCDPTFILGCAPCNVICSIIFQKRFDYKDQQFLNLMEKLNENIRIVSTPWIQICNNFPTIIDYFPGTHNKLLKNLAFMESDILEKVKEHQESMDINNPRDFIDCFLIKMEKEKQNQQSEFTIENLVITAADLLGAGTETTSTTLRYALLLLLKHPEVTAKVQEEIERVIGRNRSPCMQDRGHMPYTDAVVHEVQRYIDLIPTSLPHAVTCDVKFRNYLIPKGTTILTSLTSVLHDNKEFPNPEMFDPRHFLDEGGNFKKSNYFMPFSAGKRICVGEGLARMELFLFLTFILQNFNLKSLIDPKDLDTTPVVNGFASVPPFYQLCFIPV
Cytochrome P450 2D6, sequence (P10635 whole entry): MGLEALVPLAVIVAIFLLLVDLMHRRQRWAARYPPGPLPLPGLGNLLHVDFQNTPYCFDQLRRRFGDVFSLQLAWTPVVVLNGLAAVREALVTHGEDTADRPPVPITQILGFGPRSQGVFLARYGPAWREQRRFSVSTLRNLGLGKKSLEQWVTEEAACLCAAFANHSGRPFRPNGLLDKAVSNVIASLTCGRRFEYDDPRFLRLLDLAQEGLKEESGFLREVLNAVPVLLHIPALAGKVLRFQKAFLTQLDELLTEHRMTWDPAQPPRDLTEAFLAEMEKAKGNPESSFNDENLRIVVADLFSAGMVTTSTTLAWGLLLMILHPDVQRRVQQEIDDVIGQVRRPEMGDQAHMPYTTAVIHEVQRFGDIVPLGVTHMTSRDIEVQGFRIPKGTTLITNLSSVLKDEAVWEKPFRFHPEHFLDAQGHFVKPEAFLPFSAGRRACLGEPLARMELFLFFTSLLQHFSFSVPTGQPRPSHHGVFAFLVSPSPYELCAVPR
Cytochrome P450 3A4, sequence (P08684 whole entry): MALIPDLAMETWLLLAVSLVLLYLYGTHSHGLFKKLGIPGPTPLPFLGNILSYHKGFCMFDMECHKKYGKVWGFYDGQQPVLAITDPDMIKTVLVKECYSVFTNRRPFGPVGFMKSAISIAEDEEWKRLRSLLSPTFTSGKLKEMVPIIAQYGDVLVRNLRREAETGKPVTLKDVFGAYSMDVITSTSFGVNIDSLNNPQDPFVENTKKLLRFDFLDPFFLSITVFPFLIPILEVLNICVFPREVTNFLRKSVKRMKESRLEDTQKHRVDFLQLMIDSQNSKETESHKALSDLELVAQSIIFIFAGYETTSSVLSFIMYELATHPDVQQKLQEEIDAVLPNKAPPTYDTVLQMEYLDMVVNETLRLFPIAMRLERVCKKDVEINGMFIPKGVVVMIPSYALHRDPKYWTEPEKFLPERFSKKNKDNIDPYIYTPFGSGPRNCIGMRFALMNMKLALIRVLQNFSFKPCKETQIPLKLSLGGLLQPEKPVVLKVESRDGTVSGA
Cytochrome P450 2C9, sequence (P11712 whole entry): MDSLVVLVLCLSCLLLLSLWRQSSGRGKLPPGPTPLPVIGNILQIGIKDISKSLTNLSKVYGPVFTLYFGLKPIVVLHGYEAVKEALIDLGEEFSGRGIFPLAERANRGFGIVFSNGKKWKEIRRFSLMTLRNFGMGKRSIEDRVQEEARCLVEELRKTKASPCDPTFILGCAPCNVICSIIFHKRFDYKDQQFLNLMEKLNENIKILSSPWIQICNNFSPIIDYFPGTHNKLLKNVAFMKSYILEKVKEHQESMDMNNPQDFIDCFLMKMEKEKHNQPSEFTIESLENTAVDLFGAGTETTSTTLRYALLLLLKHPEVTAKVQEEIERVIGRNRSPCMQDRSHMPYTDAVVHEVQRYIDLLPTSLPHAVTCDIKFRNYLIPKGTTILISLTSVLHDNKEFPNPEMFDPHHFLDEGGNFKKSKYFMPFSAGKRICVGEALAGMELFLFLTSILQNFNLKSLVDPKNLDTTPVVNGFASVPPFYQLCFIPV

## CC(C)NC[C@@H](C(=O)N1C2CCC1CN(c1ncnc3c1[C@H](C)CC(=O)N3)C2)c1ccc(Cl)cc1
[1]
  AUC(0-inf): 911 ng·h/mL
LNCaP [2]
  IC50: 79 nM

## CC(C)NC[C@@H](C(=O)N1CCN(c2ncnc3c2[C@H](C)CC(=O)N3)CC1)c1ccc(Cl)cc1
[3]
  AUC(0-inf): 181 ng·h/mL
[1]
  AUC(0-inf): 241 ng·h/mL
Cytochrome P450 3A4
  IC50: 39200 nM
Cytochrome P450 2C19
  IC50: > 50000 nM
[4]
  IC50: 1.6 nM
[5]
  bioavailability: 26.6%
[6]
  clearance: 178 mL/min/kg
[7]
  MRT last at 24 h: 2.23 h
[8]
  fraction unbound at 16 h, up to 100 µM: 0.477
Cytochrome P450 2C9
  IC50: > 50000 nM
[9]
  fraction unbound at 16 h, up to 100 µM: 0.513
[10]
  Cmax: 84.3 ng/mL
[11]
  half-life: 1.56 h
[12]
  fraction unbound at 16 h, up to 100 µM: 0.513
LNCaP [13]
  inhibition in vivo at 50 mg/kg: 50%
LNCaP [2]
  IC50: 103 nM
[14]
  Tmax: 2 h
Cytochrome P450 2D6
  IC50: > 50000 nM
Cytochrome P450 1A2
  IC50: 25200 nM

## CC(C)NC[C@@H](C(=O)N1CC=C(c2ncnc3c2[C@H](C)CC(=O)N3)CC1)c1ccc(Cl)cc1
[4]
  IC50: 951 nM

## C[C@@H]1CC(=O)Nc2ncnc(N3CCN(C(=O)[C@H](CNC4CC4)c4ccc(Cl)cc4)[C@@H]4C[C@@H]43)c21
Cytochrome P450 3A4
  IC50: 1090 nM
Cytochrome P450 2C19
  IC50: > 30000 nM
Cytochrome P450 2C9
  IC50: > 30000 nM
Cytochrome P450 2D6
  IC50: > 30000 nM
Cytochrome P450 1A2
  IC50: > 30000 nM

## CC(C)NC[C@@H](C(=O)N1CC2(C1)CN(c1ncnc3c1[C@H](C)CC(=O)N3)C2)c1ccc(Cl)cc1
[4]
  IC50: > 1000 nM

## CC(C)NC[C@@H](C(=O)N1CCN(c2cc[nH]c(=O)c2)CC1)c1ccc(Cl)cc1
[4]
  IC50: > 1000 nM

## CC(C)NC[C@@H](C(=O)N1CCN(c2ncnc3c2[C@H](C)CC(=O)N3)C[C@@H]1C)c1ccc(Cl)cc1
[4]
  IC50: 220 nM

## CC(C)NC[C@@H](C(=O)N1C[C@H]2CC[C@@H](C1)N2c1ncnc2c1N(C)CC(=O)N2)c1ccc(Cl)cc1
[4]
  IC50: 30 nM

## CC(C)NC[C@@H](C(=O)N1CC2CCC(C1)N2c1ncnc2c1[C@H](C)CC(=O)N2)c1ccc(Cl)cc1
[1]
  AUC(0-inf): 1480 ng·h/mL
LNCaP [2]
  IC50: 446 nM

## CC(C)NC[C@@H](C(=O)N1CCC(c2ncnc3c2[C@H](C)CC(=O)N3)CC1)c1ccc(Cl)cc1
[4]
  IC50: > 1000 nM

## CC(C)NC[C@@H](C(=O)N1[C@@H]2CC[C@H]1CN(c1ncnc3c1[C@H](C)OC(=O)N3)C2)c1ccc(Cl)cc1
[1]
  AUC(0-inf): 727 ng·h/mL
[4]
  IC50: 0.6 nM
LNCaP [2]
  IC50: 84 nM

## CC(C)NC[C@@H](C(=O)N1C[C@H]2CC[C@@H](C1)N2c1ncnc2c1[C@H](C)OC(=O)N2)c1ccc(Cl)cc1
[1]
  AUC(0-inf): 3030 ng·h/mL
[4]
  IC50: 1.6 nM
LNCaP [13]
  inhibition in vivo at 50 mg/kg: 28%
LNCaP [2]
  IC50: 236 nM

## CC(C)NC[C@@H](C(=O)N1C2CCC1CN(c1ncnc3c1N(C)CC(=O)N3)C2)c1ccc(Cl)cc1.O=CO
[1]
  AUC(0-inf): 2290 ng·h/mL
LNCaP [13]
  inhibition in vivo at 50 mg/kg: 34.5%
LNCaP [2]
  IC50: 279 nM

## CC(C)NC[C@@H](C(=O)N1CCN(c2ncnc3c2[C@H](C)OC(=O)N3)[C@H]2C[C@H]21)c1ccc(Cl)cc1
[1]
  AUC(0-inf): 2580 ng·h/mL
[4]
  IC50: 0.6 nM
[5]
  bioavailability: 26.5%
LNCaP [13]
  inhibition in vivo at 50 mg/kg: 94.1%
LNCaP [2]
  IC50: 201 nM

## C[C@@H]1CC(=O)Nc2ncnc(N3CCN(C(=O)[C@H](CN)c4ccc(Cl)cc4)[C@@H]4C[C@@H]43)c21
Cytochrome P450 3A4
  IC50: 10100 nM
Cytochrome P450 2C19
  IC50: > 30000 nM
[4]
  IC50: 6.8 nM
Cytochrome P450 2C9
  IC50: > 30000 nM
Cytochrome P450 2D6
  IC50: > 30000 nM
Cytochrome P450 1A2
  IC50: 6480 nM

## CC(C)NC[C@@H](C(=O)N1CCN(c2ncnc3c2[C@@H](C)CC(=O)N3)CC1)c1ccc(Cl)cc1
[4]
  IC50: > 1000 nM

## C[C@@H]1CC(=O)Nc2ncnc(N3CCN(C(=O)[C@H](CNC4C5COCC54)c4ccc(Cl)cc4)[C@@H]4C[C@@H]43)c21 (stereo partly specified)
Cytochrome P450 3A4
  IC50: 4330 nM
Cytochrome P450 2C19
  IC50: > 30000 nM
[4]
  IC50: 4.1 nM
Cytochrome P450 2C9
  IC50: > 30000 nM
Cytochrome P450 2D6
  IC50: > 30000 nM
Cytochrome P450 1A2
  IC50: > 30000 nM

## [2H]C1([2H])N(C(=O)[C@H](CNC(C)C)c2ccc(Cl)cc2)C([2H])([2H])C([2H])([2H])N(c2ncnc3c2[C@H](C)CC(=O)N3)C1([2H])[2H]
[1]
  AUC(0-inf): 947 ng·h/mL
[4]
  IC50: 1.6 nM
LNCaP [2]
  IC50: 131 nM

## CC(C)NC[C@@H](C(=O)N1CC2CC1CN2c1ncnc2c1[C@H](C)CC(=O)N2)c1ccc(Cl)cc1 (stereo partly specified)
[4]
  IC50: 414 nM

## COC1CCC(NC[C@@H](C(=O)N2CCN(c3ncnc4c3[C@H](C)CC(=O)N4)[C@H]3C[C@H]32)c2ccc(Cl)cc2)CC1 (stereo partly specified)
Cytochrome P450 3A4
  IC50: 1810 nM
Cytochrome P450 2C19
  IC50: 30000 nM
[4]
  IC50: 1.3 nM
Cytochrome P450 2C9
  IC50: 30000 nM
Cytochrome P450 2D6
  IC50: 30000 nM
Cytochrome P450 1A2
  IC50: 30000 nM

## Cc1c(CO)ncnc1N1CCN(C(=O)[C@H](CNC(C)C)c2ccc(Cl)cc2)CC1
[4]
  IC50: > 1000 nM

## CC(C)NC[C@@H](C(=O)N1CCN(c2ncnc3c2[C@H](C)C[C@H]3O)CC1)c1ccc(Cl)cc1 [IPATASERTIB]
ZR-75-1
  IC50: 1320 nM
CAL-51
  IC50: 265 nM
T47D
  IC50: 328 nM
C-33-A
  IC50: 726 nM
TOV21G
  IC50: 715 nM
RL95-2
  IC50: 331 nM
PC-3
  IC50: 3540 nM
cells
  IC50: 945 nM
